In ChEMBL document CHEMBL3886577, “N-((6-amino-pyridin-3-yl)methyl)-heteroaryl-carboxamides” (2016):

Test system: not listed separately
Assay: (§1) In-vitro Plasma Kallikrein Inhibition: Enzymatic reactions were conducted in ⿿assay buffer⿿, comprising 50 mM Hepes/NaOH at pH 7.8, 150 mM NaCl, 1 mM EDTA and 0.05% (w/v) CHAPS. For the determination of IC50 values, the assays were performed at room temperature in 384-well plates with a total assay volume of 25.25 ul per well. The test compound was dissolved in 90% (v/v) DMSO/water. For the assays, 250 nL of the 90% (v/v) DMSO/water solution or compound solution were added per well, followed by the addition of 12.5 ul protease solution (protease in assay buffer). The final assay concentration of the human plasma kallikrein was nominally 25 pM, the 11 compound concentrations in the dilution series were in the range form 1 nM to 100 uM. After 1 hour of pre-incubation at room temperature, the reactions were started by the addition of 12.5 ul substrate solution (in assay buffer, final assay concentration was 0.5 uM). After the addition of the substrate solution, the final DMSO concentration in the assay was 0.9% (v/v).

SMILES | IC50 [nM]
Cc1nc(N)cc(OCC(=O)C(C)(C)C)c1CNC(=O)c1cn(Cc2ccccc2)nn1 | 24

Target: Plasma kallikrein (Homo sapiens, UniProt P03952)
Assay: as §1
Assay type: cell-free

Chain of Plasma kallikrein (P03952 20-390 limits assumed): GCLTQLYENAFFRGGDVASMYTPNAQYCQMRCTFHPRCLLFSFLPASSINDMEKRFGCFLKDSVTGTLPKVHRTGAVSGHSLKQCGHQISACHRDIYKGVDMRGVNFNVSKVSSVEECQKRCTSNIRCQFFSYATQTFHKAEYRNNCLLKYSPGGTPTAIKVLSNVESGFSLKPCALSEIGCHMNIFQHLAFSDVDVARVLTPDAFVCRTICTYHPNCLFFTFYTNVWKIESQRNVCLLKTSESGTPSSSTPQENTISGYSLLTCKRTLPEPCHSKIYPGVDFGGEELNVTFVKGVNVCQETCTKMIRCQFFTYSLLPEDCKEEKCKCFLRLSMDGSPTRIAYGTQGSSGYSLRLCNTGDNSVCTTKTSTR
Chain of Plasma kallikrein (P03952 391-638 limits assumed): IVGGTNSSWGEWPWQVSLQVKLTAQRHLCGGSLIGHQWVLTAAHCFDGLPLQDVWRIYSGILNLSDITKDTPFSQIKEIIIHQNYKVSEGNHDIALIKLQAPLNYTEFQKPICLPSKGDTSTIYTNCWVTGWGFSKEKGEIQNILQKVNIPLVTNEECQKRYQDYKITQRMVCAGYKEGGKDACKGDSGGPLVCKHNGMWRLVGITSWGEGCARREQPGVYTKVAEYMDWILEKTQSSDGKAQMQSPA

SMILES | IC50 [nM]
CNC(=O)COc1cc(N)nc(C)c1CNC(=O)c1cnn(Cc2ccccc2)c1 | 70
Cc1cc(N)nc(C)c1CNC(=O)c1nnn(Cc2ccccc2)c1C | 52100
COc1ccc2cc(Cn3cc(C(=O)NCc4c(C)cc(N)nc4C)cn3)ccc2c1 | 5
Cc1cc(N)nc(C)c1CNC(=O)c1cnn(Cc2ccc(CO)cc2)c1 | 150
COc1cc(Cn2cc(C(=O)NCc3c(C)cc(N)nc3C)cn2)ccc1Cn1cccn1 | 0.0912
Cc1cc(N)nc(C)c1CNC(=O)c1cn(Cc2ccc(-c3ccccc3)cc2)nn1 | 30
Cc1cc(N)nc(C)c1CNC(=O)c1cc(C)n(Cc2ccco2)c1C | 739
Cc1cc(N)nc(C)c1CNC(=O)c1nc(Cc2ccccc2)n(C)n1 | 7670
